Test results from ChEMBL document CHEMBL1671734, “An ertapenem-resistant extended-spectrum-beta-lactamase-producing Klebsiella pneumoniae clone carries a novel OmpK36 porin variant” (2010).
Converted amounts (≈) assume the structure as drawn.

Legend:
Format in all cases: functional
Klebsiella pneumoniae [1] = assay: Antimicrobial activity against ESBL-positive Klebsiella pneumoniae 17049 harboring porin OmpK36V mutant gene by microdilution method
Klebsiella pneumoniae [2] = assay: Antimicrobial activity against ESBL-positive Klebsiella pneumoniae 17834 harboring porin OmpK36V mutant gene by microdilution method
Klebsiella pneumoniae [3] = assay: Antimicrobial activity against ESBL-positive Klebsiella pneumoniae 17829 by microdilution method
Klebsiella pneumoniae [4] = assay: Antimicrobial activity against ESBL-positive Klebsiella pneumoniae 11932 harboring porin OmpK36 gene by microdilution method
Klebsiella pneumoniae [5] = assay: Antimicrobial activity against ESBL-positive Klebsiella pneumoniae 71697 harboring porin OmpK36V mutant gene by microdilution method
Klebsiella pneumoniae [6] = assay: Antimicrobial activity against ESBL-positive Klebsiella pneumoniae 18567 harboring porin OmpK36V mutant gene by microdilution method
Klebsiella pneumoniae [7] = assay: Antimicrobial activity against ESBL-positive Klebsiella pneumoniae 31750 harboring porin OmpK36 gene by microdilution method
Klebsiella pneumoniae [8] = assay: Antimicrobial activity against ESBL-positive Klebsiella pneumoniae 29830 harboring porin OmpK36V mutant gene by microdilution method
Klebsiella pneumoniae [9] = assay: Antimicrobial activity against ESBL-negative Klebsiella pneumoniae 30018 harboring porin OmpK35 gene by microdilution method
Klebsiella pneumoniae [10] = assay: Antimicrobial activity against ESBL-positive Klebsiella pneumoniae 26077 harboring porin OmpK36V mutant gene by microdilution method
Klebsiella pneumoniae [11] = assay: Antimicrobial activity against ESBL-positive Klebsiella pneumoniae 16830 harboring porin OmpK36 gene by microdilution method
Klebsiella pneumoniae [12] = assay: Antimicrobial activity against ESBL-positive Klebsiella pneumoniae 17830 harboring porin OmpK36V mutant gene by microdilution method
Klebsiella pneumoniae [13] = assay: Antimicrobial activity against ESBL-positive Klebsiella pneumoniae 6267 harboring porin OmpK36V mutant gene by microdilution method
Klebsiella pneumoniae [14] = assay: Antimicrobial activity against ESBL-positive Klebsiella pneumoniae 29459 harboring porin OmpK36 gene by microdilution method
Klebsiella pneumoniae [15] = assay: Antimicrobial activity against ESBL-positive Klebsiella pneumoniae 18260 harboring pSHA2-encoded porin OmpK36 gene by microdilution method
Klebsiella pneumoniae [16] = assay: Antimicrobial activity against ESBL-positive Klebsiella pneumoniae 69036 harboring porin OmpK36V mutant gene by microdilution method
Klebsiella pneumoniae [17] = assay: Antimicrobial activity against ESBL-positive Klebsiella pneumoniae 18918 harboring porin OmpK36V mutant gene by microdilution method
Klebsiella pneumoniae [18] = assay: Antimicrobial activity against ESBL-positive Klebsiella pneumoniae 50748 harboring porin OmpK36 gene by microdilution method
Klebsiella pneumoniae [19] = assay: Antimicrobial activity against ESBL-positive Klebsiella pneumoniae 19039 harboring porin OmpK36V mutant gene by microdilution method
Klebsiella pneumoniae [20] = assay: Antimicrobial activity against ESBL-positive Klebsiella pneumoniae 18260 by microdilution method
Klebsiella pneumoniae [21] = assay: Antimicrobial activity against ESBL-positive Klebsiella pneumoniae 287942 harboring porin OmpK36 gene by microdilution method
Klebsiella pneumoniae [22] = assay: Antimicrobial activity against ESBL-positive Klebsiella pneumoniae 69928 harboring porin OmpK36V mutant gene by microdilution method
Klebsiella pneumoniae [23] = assay: Antimicrobial activity against ESBL-positive Klebsiella pneumoniae 17829 harboring pSHA2-encoded porin OmpK36 gene by microdilution method
Klebsiella pneumoniae [24] = assay: Antimicrobial activity against ESBL-negative Klebsiella pneumoniae 299332 harboring porin OmpK36 gene by microdilution method
Klebsiella pneumoniae [25] = assay: Antimicrobial activity against ESBL-positive Klebsiella pneumoniae 25008 by microdilution method
Klebsiella pneumoniae [26] = assay: Antimicrobial activity against ESBL-positive Klebsiella pneumoniae 16855 harboring porin OmpK36 and OmpK35 genes by Etest by microdilution method

## C[C@@H](O)[C@H]1C(=O)N2C(C(=O)O)=C(S[C@@H]3CN[C@H](C(=O)Nc4cccc(C(=O)O)c4)C3)[C@H](C)[C@H]12 [ERTAPENEM]
Klebsiella pneumoniae [1]
  MIC: 8 µg/mL (≈ 16.8 µM)
Klebsiella pneumoniae [2]
  MIC: 6 µg/mL (≈ 12.6 µM)
Klebsiella pneumoniae [3]
  MIC: 128 µg/mL (≈ 269 µM)
Klebsiella pneumoniae [4]
  MIC: 0.19 µg/mL (≈ 0.4 µM)
Klebsiella pneumoniae [5]
  MIC: 8 µg/mL (≈ 16.8 µM)
Klebsiella pneumoniae [6]
  MIC: 6 µg/mL (≈ 12.6 µM)
Klebsiella pneumoniae [7]
  MIC: 0.125 µg/mL (≈ 0.263 µM)
Klebsiella pneumoniae [8]
  MIC: 6 µg/mL (≈ 12.6 µM)
Klebsiella pneumoniae [9]
  MIC: 0.023 µg/mL (≈ 0.0484 µM)
Klebsiella pneumoniae [10]
  MIC: 6 µg/mL (≈ 12.6 µM)
Klebsiella pneumoniae [11]
  MIC: 0.125 µg/mL (≈ 0.263 µM)
Klebsiella pneumoniae [12]
  MIC: 8 µg/mL (≈ 16.8 µM)
Klebsiella pneumoniae [13]
  MIC: 4 µg/mL (≈ 8.41 µM)
Klebsiella pneumoniae [14]
  MIC: 0.25 µg/mL (≈ 0.526 µM)
Klebsiella pneumoniae [15]
  MIC: 16 µg/mL (≈ 33.6 µM)
Klebsiella pneumoniae [16]
  MIC: 6 µg/mL (≈ 12.6 µM)
Klebsiella pneumoniae [17]
  MIC: 8 µg/mL (≈ 16.8 µM)
Klebsiella pneumoniae [18]
  MIC: 0.25 µg/mL (≈ 0.526 µM)
Klebsiella pneumoniae [19]
  MIC: 8 µg/mL (≈ 16.8 µM)
Klebsiella pneumoniae [20]
  MIC: 128 µg/mL (≈ 269 µM)
Klebsiella pneumoniae [21]
  MIC: 0.19 µg/mL (≈ 0.4 µM)
Klebsiella pneumoniae [22]
  MIC: 6 µg/mL (≈ 12.6 µM)
Klebsiella pneumoniae [23]
  MIC: 16 µg/mL (≈ 33.6 µM)
Klebsiella pneumoniae [24]
  MIC: 0.016 µg/mL (≈ 0.0336 µM)
Klebsiella pneumoniae [25]
  MIC: 16 µg/mL (≈ 33.6 µM)
Klebsiella pneumoniae [26]
  MIC: 0.094 µg/mL (≈ 0.198 µM)
